The target in assay [1] is 70S ribosome. Put plainly: Fluorescence anisotropy binding to 70S ribosomes. The settings on record: competition with CRP, E. coli ribosomes; read-out: Dissociation constant (KD) with 70S ribosome. The method, then:
(§1) After establishing the lack of stereospecificity in the binding of aminoglycosides to the A-site RNA constructs (FIG. 9A-C) where the binding affinity, KD, is about 0.1 μM to about 100 μM, the stereospecificity of aminoglycoside binding to intact ribosomes was determined. Both yeast and E. coli ribosomes were prepared and aminoglycoside binding was measured using fluorescence anisotropy methods. For example, fluorescence anisotropy methods recited in Wang, Y., and Rando, R. R. Chem. Biol. (1995) 2, 281-290; and Wang, Y., Hamasaki, K., and Rando, R. R. Biochemistry (1997) 36,768-779. CRP was used as the binding probe. […] Binding data reported herein for aminoglycoside compounds with eukaryotic yeast ribosomes are similar to binding data for said aminoglycoside compounds with ribosoimes in bacteria and with eukaryotic A-site rRNA constructs.
(§2) 5-Carboxytetramethylrhodamine-labeled paromomycin (CRP) and tobramycin (CRT) concentrations were determined spectroscopically at 550 nm using a molar extinction coefficient of 6.00×10 4 M −1 cm −1. Fluorescence anisotropy measurements were performed on a Perkin-Elmer LS-50B luminescence spectrometer equipped with a thermostat accurate to ±0.1° C. as indicated previously (Wang, Y., Hamasaki, K., & Rando, R. R. (1997) Biochemistry 36, 768-779). The tracer solution was excited at 550 nm and monitored at 580 nm. The integration time was 5 s. For every point, 6 measurements were taken, and their average values were used for calculation. Measurements were carried out in a buffer solution containing 150 mM NaCl, 5 mM KCl, 1 mM CaCl2, 1 mM MgCl2, and 20 mM HEPES (pH 7.5). Prior to measurements, RNA constructs were renatured by incubating in binding buffer {150 mM NaCl, 5 mM KCl, 1 mM CaCl2, 1 mM MgCl2, and 20 mM HEPES (pH 7.5)} for 3 minutes at 90° C. followed by slow cooling to 25° C.
(§3) Equation 1 was used for the determination of the dissociation constant (Kd) for the interactions between RNA or ribosome and CRP. A=A0+DA{(RNA)0+(CRP)0+Kd−({(RNA)0+(CRP)0+Kd}^2−4(RNA)0(CRP)0)½}/2 where A and A0 are the fluorescence anisotropy of CRP in the presence and absence of RNA, respectively, and DA is the difference between the fluorescence anisotropy of CRP in the presence of an extrapolated infinite concentration of RNA minus the fluorescence anisotropy in the absence of RNA. (RNA)0 and (CRP)0 are the initial concentrations of RNA and CRP, respectively.
(§4) Equation 2 is used for the calculation of the KD values in the competition binding assay. (aminoglycoside)0={KD(A−−A)/Kd(A−A0)+1}{(RNA)0−Kd(A−A0)/(A−−A)−(CRP)0(A−A0)/(A−−A)} where KD is the dissociation constant between the RNA and the aminoglycosides; (aminoglycoside)0 is the initial concentration of the aminoglycosides; AL is anisotropy of completely bound tracer. Both Kd and KD were determined by non-linear curve fitting using the equations described above, and are presented as mean values of three independent measurements.
The purification of E. coli (E600) 70S ribosomes was carried out according to the published procedure (Lazaro, E., van den Broek, L. A. G. M., Felix, A. S., Ottenheijm, H. C. J., Ballesta, J. P. G. (1991) Biochemistry 30, 9642-9648). E. coli MRE600 were grown for 12 h in 6L of LB medium (10 g trypton, 5 g yeast extract, 5 g NaCl per 1 L, pH 7.0) at 37° C. Crude ribosomes were precipitated from clarified supernatant by 4 h centrifugation at 25,000 rpm in Beckman SW 28 rotor at 4° C. The ribosome pellets were collected in 5 mL of buffer BR1, containing 10 mM HEPES, pH 7.5, 500 mM ammonium acetate, 100 mM magnesium chloride and 2.5 mM DTT. The ribosome suspension was centrifuged for 20 min at 15000 rpm to be clarified. The clarified sample was loaded over two layers of 20% and 40% sucrose in buffer BR1 and centrifuged for 18 hr at 19000 rpm in Beckman SW28 rotor at 4° C. […]

The target of assay [2] is 80S ribosome. The experiment in a line: Fluorescence anisotropy binding to 80S ribosomes. Details: species or system yeast (S. cerevisiae). The settings on record: competition with CRP, yeast ribosomes; read-out: Dissociation constant (KD) with 80S ribosome. The method, then: as §1, §2, §3, §4
The purification of yeast 80S ribosomes from S. cerevisiae strain YSB 758 was carried out according to the published procedure (Verschoor, A., Warner, J. R., Srivastava, S., Grassucci, R. A., & Frank, J. (1997) Nucl. Acid Res. 26, 655-661). S. cerevisiea YSB 758 were grown for 12 hrs at 30° C. in 2L of YPD medium, containing: 20 g bacto peptone, 20 g glucose, 10 g yeast extract and 0.15 g tryptophan per 1 L, pH 7.0. The cells were lysed by 5-10 cycles of 1 min vigorous shaking with glass beads with a vortex, followed by cooling on ice. Clarified cell extract (about 9 mL total, used in 6 portions in 1.5 mL aliqouts) was carefully loaded on top of 2 mL of a cushion, composed of 10% sucrose and 5% ammonium sulfate dissolved in buffer YR1 (20 mM HEPES pH=7.4, 16 mM magnesium chloride, 100 mM potassium chloride, 5 mM DTT, and 0.5 mM EDTA). The ribosomes were collected by centrifugation in Beckman TL100.3 rotor at 75000 rpm for 3 h. The supernatants were carefully discarded and ribosomes were collected in buffer YR1. […]

Each structure is given as a SMILES string.

`NCC1OC(OC2C(N)CC(N)C(O)C2O)C(N)C(O)C1O` [L-Neamine]: the dissociation constant Kd came to 2.69 ± 0.46 µM in assay [1] and 6.06 ± 0.63 µM in assay [2].

Source of the values: US7244712B2, “Aminoglycoside antibiotics and methods of using same” (priority 2004, dated 2007).
